# According to article PMC4669708 (Cell Death & Disease, 2015):
# Key:
# Assay in all cases: c-ponatinib pulldown LC-MS/MS
# Assay type in all cases: binding
# [1] = target: UNC119B (Homo sapiens, UniProt A6NIH7)
# Method in brief: (§1)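 c-Ponatinib (25 nmol) immobilized on NHS-Sepharose was incubated with 10 mg whole cell lysate per replicate, in duplicate. Eluates were reduced, alkylated, trypsin-digested and analysed by gel-free 1D LC-MS/MS. Specificity was scored from Mascot, Phenyx and spectral counts, with competition by free compound.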
# [2] = target: ZAK (Homo sapiens, UniProt Q9NYL2)
# Method in brief: as §1
# [3] = target: MAPK11 (Homo sapiens, UniProt Q15759)
# Method in brief: as §1
# [4] = target: T1, MLKL (Homo sapiens, UniProt Q8NB16)
# T1 sequence (Q8NB16 1-471): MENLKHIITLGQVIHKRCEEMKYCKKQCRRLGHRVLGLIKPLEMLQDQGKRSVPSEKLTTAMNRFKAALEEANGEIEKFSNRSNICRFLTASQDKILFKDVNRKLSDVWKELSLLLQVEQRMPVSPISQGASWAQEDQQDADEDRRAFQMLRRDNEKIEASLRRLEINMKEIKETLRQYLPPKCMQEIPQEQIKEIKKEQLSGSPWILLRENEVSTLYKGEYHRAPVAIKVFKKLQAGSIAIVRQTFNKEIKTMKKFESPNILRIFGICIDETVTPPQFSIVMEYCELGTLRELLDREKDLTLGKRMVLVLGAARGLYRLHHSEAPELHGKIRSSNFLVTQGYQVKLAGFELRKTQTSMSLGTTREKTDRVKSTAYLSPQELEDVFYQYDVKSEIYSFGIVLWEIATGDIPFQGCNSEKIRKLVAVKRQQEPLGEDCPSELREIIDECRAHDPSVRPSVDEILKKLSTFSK
# Method in brief: as §1
# [5] = target: T2, PLEKHF2 (Homo sapiens, UniProt Q9H8W4)
# T2 sequence (Q9H8W4 1-249): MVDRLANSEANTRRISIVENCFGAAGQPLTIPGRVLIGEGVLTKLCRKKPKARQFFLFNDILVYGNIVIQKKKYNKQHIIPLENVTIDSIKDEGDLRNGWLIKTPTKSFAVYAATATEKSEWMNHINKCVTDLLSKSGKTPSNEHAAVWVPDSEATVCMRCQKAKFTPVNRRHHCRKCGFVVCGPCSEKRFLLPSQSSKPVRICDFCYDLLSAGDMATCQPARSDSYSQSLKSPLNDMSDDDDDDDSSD
# Method in brief: as §1
# [6] = target: T3, YWHAG (Homo sapiens, UniProt P61981)
# T3 sequence (P61981 1-247): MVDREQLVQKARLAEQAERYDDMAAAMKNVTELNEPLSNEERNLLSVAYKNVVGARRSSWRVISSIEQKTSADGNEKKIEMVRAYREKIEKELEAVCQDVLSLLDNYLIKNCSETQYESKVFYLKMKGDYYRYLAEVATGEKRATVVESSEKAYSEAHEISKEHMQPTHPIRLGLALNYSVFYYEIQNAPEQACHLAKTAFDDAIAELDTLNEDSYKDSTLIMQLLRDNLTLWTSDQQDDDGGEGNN
# Method in brief: as §1
# ZAK, sequence (Q9NYL2 whole entry): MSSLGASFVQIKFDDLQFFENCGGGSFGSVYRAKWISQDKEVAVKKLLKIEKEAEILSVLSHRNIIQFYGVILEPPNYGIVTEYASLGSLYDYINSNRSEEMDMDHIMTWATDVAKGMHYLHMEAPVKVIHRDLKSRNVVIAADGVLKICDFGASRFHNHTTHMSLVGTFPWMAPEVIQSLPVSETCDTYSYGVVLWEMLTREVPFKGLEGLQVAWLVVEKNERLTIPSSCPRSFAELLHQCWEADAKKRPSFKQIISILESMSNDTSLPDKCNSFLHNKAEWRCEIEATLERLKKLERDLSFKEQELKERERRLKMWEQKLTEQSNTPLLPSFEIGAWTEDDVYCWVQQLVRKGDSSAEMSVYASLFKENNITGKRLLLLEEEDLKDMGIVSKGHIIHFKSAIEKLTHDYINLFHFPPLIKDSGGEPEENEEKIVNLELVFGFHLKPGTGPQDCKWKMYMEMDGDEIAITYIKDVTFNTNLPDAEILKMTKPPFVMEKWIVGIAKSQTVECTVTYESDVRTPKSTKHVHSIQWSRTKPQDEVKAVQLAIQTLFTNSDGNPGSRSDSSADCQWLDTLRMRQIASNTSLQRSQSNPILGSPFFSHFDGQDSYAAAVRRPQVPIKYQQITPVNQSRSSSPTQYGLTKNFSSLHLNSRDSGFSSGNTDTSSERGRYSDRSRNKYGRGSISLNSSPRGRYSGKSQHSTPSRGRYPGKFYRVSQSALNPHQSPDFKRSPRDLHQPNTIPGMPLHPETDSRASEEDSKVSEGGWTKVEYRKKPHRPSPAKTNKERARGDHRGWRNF
# UNC119B, sequence (A6NIH7 whole entry): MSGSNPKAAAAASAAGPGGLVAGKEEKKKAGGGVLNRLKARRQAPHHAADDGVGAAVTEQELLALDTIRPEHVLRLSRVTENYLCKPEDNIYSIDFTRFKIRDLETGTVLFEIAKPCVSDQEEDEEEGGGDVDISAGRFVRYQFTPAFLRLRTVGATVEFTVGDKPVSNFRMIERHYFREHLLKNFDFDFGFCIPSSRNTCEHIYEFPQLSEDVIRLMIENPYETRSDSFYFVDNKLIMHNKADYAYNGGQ
# MAPK11, sequence (Q15759 whole entry): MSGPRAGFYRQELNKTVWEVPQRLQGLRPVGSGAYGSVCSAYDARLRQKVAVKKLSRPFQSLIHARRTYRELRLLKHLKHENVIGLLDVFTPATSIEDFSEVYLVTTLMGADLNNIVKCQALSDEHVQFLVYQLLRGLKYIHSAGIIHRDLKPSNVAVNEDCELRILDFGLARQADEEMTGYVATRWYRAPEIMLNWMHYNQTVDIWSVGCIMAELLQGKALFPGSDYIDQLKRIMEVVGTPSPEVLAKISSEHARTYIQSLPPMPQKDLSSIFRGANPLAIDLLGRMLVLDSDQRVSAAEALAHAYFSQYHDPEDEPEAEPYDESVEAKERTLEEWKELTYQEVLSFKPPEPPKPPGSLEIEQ
smiles,measurement,setting,value
Cc1ccc(C(=O)Nc2ccc(CN3CCN(CCCN)CC3)c(C(F)(F)F)c2)cc1C#Cc1cnc2cccnn12 [c-ponatinib],Av. SC comp.,[1]; + free ponatinib,0
same,Total SC comp.,[1]; + free ponatinib,0
same,Av. SC,[1]; no competitor,6
same,Total SC,[1]; no competitor,24
same,Av. SC comp.,[2]; + free ponatinib,0
same,Total SC comp.,[2]; + free ponatinib,0
same,Av. SC,[2]; no competitor,65.25
same,Total SC,[2]; no competitor,261
same,Av. SC comp.,[3]; + free ponatinib,0
same,Total SC comp.,[3]; + free ponatinib,0
same,Av. SC,[3]; no competitor,3
same,Total SC,[3]; no competitor,12
same,Av. SC comp.,[4]; + free ponatinib,0
same,Total SC comp.,[4]; + free ponatinib,0
same,Av. SC,[4]; no competitor,5
same,Total SC,[4]; no competitor,20
same,Av. SC comp.,[5]; + free ponatinib,0
same,Total SC comp.,[5]; + free ponatinib,0
same,Av. SC,[5]; no competitor,8.25
same,Total SC,[5]; no competitor,33
same,Av. SC comp.,[6]; + free ponatinib,3.25
same,Total SC comp.,[6]; + free ponatinib,13
same,Av. SC,[6]; no competitor,11.25
same,Total SC,[6]; no competitor,45
